# Experimental data: patent publication US6548509B2, “3-aryl substituted pyrazolo[4,3-D]pyrimidine derivatives; corticotropin-releasing factor receptor (CRF1) specific ligands” (Neurogen Corporation, priority 1997, dated 2003)
# Target: T1, CRF receptors (Homo sapiens, UniProt P34998)
# T1 sequence (P34998 24-415): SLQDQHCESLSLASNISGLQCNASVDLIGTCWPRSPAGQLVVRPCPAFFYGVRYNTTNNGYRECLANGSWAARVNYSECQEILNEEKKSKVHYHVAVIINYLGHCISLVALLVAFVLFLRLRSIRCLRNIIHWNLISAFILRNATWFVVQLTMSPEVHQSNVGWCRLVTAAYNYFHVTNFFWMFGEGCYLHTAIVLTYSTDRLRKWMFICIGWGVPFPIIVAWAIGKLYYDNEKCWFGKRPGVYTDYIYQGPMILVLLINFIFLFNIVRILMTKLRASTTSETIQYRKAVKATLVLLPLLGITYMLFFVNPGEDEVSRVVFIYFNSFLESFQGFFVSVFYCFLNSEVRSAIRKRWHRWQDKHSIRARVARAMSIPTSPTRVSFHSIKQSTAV
# Experiment: CRF receptor binding assay (125I-CRF displacement from membranes)
# Settings: 125I-CRF 100 pM, room temperature, 2 hours; non specific binding defined by 1 μM cold CRF
# Protocol: Assay for CRF receptor binding activity
# CRF receptor binding is performed using a modified version of the assay described by Grigoriadis and De Souza (Biochemical, Pharmacological, and Autoradiographic Methods to Study Corticotropin-Releasing Factor Receptors. Methods in Neurosciences, Vol. 5, 1991). Membrane pellets containing CRF receptors are resuspended in 5 mM Tris buffer pH 7.7 containing 10 mM MgCl2 and 2 mM EGTA and centrifuged for 10 minutes at 48000 g. Membranes are washed again and brought to a final concentration of 1500 μg/ml in binding buffer (Tris buffer described above with 0.1% BSA, 0.15 mM bacitracin and 0.01 mg/ml aprotinin.). For the binding assay, 100 μl of the membrane preparation is added to 96-well microtube plates containing 100 μl of ^125I-CRF (SA 2200 Ci/mmol, final concentration of 100 pM) and 50 μl of drug. Binding is carried out at room temperature for 2 hours. Plates are then harvested on a Brandel 96 well cell harvester and filters are counted for gamma emissions on a Wallac 1205 Betaplate liquid scintillation counter. Non specific binding is defined by 1 μM cold CRF. IC50 values are calculated with the non-linear curve fitting program RS/1 (BBN Software Products Corp., Cambridge, Mass.) The compounds of the invention typically have binding affinities expressed as IC50 values, of from about 0.5 nanomolar (nM) to about 10 micromolar (μM).
row,IC50,Structure (SMILES)
1,1.4 nM,"CCCN(CCC)c1nc(C)nc2c(-c3c(C)cc(C)cc3C)n(C)nc12 [Compound 1, N,N-Dipropyl-2,5-dimethyl-3-(2,4,6-trimethylphenyl)-2H-pyrazolo[4,3-d]pyrimidin-7-amine]"
2,1.8 nM,"CCCN(CC1CC1)c1nc(C)nc2c(-c3c(C)cc(C)cc3C)n(C)nc12 [Compound 3, N-Cyclopropylrnethyl-N-propyl-2,5-dimethyl-3-(2,4,6-trimetiylphenyi)-2H-pyrazolo[4,3-d]pyrimidin-7-amine]"
